Series [1] relates to Alopecurus myosuroides (ALOMY). The experiment in a line: Pre-emergence biological efficacy, glasshouse pot test. It is filed as in vivo. Conditions: 312 h, 1,000 g/ha, evaluated after 13 days, 100=total damage, 0=no damage, read-out: Percentage damage caused to weed species, pre-emergence, ALOMY. The protocol: (§1) Seeds of Alopecurus myosuroides (ALOMY), Setaria faberi (SETFA), Echinochloa crus-galli (ECHCG), Solanum nigrum (SOLNI), Amaranthus retroflexus (AMARE) and Ipomoea hederaceae (IPOHE) were sown in standard soil in pots. After cultivation for one day under controlled conditions in a glasshouse (at 24/16° C., day/night; 14 hours light; 65% humidity), the plants were sprayed with an aqueous spray solution derived from the formulation of the technical active ingredient in acetone/water (50:50) solution containing 0.5% Tween 20 (polyoxyethylene sorbitan monolaurate, CAS RN 9005-64-5) to give a final dose of 1000 g/ha of test compound.
(§2) The test plants were then grown under controlled conditions in the glasshouse (at 24/16° C., day/night; 14 hours light; 65% humidity) and watered twice daily. After 13 days the test was evaluated (100=total damage to plant; 0=no damage to plant).

The test system of series [2] is Amaranthus retroflexus (AMARE). The series is described as above. The series is classed as in vivo. The following applies: 312 h, 1,000 g/ha, evaluated after 13 days, 100=total damage, 0=no damage, read-out: Percentage damage caused to weed species, pre-emergence, AMARE. The protocol: as §1, §2
Series [3] concerns Echinochloa crus-galli (ECHCG). Described as above. Conditions: 312 h, 1,000 g/ha, evaluated after 13 days, 100=total damage, 0=no damage, read-out: Percentage damage caused to weed species, pre-emergence, ECHCG. The series is classed as in vivo. On the procedure: as §1, §2
Series [4] has as its system Ipomoea hederaceae (IPOHE). The description is as above. It is filed as in vivo. Conditions: 312 h, 1,000 g/ha, evaluated after 13 days, 100=total damage, 0=no damage, read-out: Percentage damage caused to weed species, pre-emergence, IPOHE. On the procedure: as §1, §2
Series [5] relates to Setaria faberi (SETFA). Described as above. It is filed as in vivo. Conditions: 312 h, 1,000 g/ha, evaluated after 13 days, 100=total damage, 0=no damage, read-out: Percentage damage caused to weed species, pre-emergence, SETFA. The protocol: as §1, §2
Series [6] deals with Solanum nigrum (SOLNI). The description is as above. It is filed as in vivo. The following applies: 312 h, 1,000 g/ha, evaluated after 13 days, 100=total damage, 0=no damage, read-out: Percentage damage caused to weed species, pre-emergence, SOLNI. The protocol:
as §1, §2

Series [7] deals with Alopecurus myosuroides (ALOMY). Briefly: Post-emergence biological efficacy, glasshouse pot test. The following applies: 312 h, 1,000 g/ha, post-emergence (sprayed after 8 days), evaluated after 13 days, 100=total damage, 0=no damage, read-out: Percentage damage caused to weed species, post-emergence, ALOMY. The series is classed as in vivo. On the procedure: as §1, with “8 days” for “one day”
(§3) The test plants were then grown on under controlled conditions in a glasshouse (at 24/16° C., day/night; 14 hours light; 65% humidity) and watered twice daily. After 13 days the test was evaluated (100=total damage to plant; 0=no damage to plant).

For series [8], the system named is Amaranthus retroflexus (AMARE). The series is described as above. Conditions: 312 h, 1,000 g/ha, post-emergence (sprayed after 8 days), evaluated after 13 days, 100=total damage, 0=no damage, read-out: Percentage damage caused to weed species, post-emergence, AMARE. It is filed as in vivo. On the procedure:
as §1, with “8 days” for “one day”
as §3

The subject of series [9] is Echinochloa crus-galli (ECHCG). Described as above. It is filed as in vivo. The following applies: 312 h, 1,000 g/ha, post-emergence (sprayed after 8 days), evaluated after 13 days, 100=total damage, 0=no damage, read-out: Percentage damage caused to weed species, post-emergence, ECHCG. On the procedure: as §1, with “8 days” for “one day”
as §3

In series [10] the test system is Ipomoea hederaceae (IPOHE). The description is as above. It is filed as in vivo. Conditions: 312 h, 1,000 g/ha, post-emergence (sprayed after 8 days), evaluated after 13 days, 100=total damage, 0=no damage, read-out: Percentage damage caused to weed species, post-emergence, IPOHE. On the procedure:
as §1, with “8 days” for “one day”
as §3

Series [11] relates to Setaria faberi (SETFA). The description is as above. It is filed as in vivo. The following applies: 312 h, 1,000 g/ha, post-emergence (sprayed after 8 days), evaluated after 13 days, 100=total damage, 0=no damage, read-out: Percentage damage caused to weed species, post-emergence, SETFA. The protocol:
as §1, with “8 days” for “one day”
as §3

Series [12] deals with Solanum nigrum (SOLNI). Described as above. It is filed as in vivo. Conditions: 312 h, 1,000 g/ha, post-emergence (sprayed after 8 days), evaluated after 13 days, 100=total damage, 0=no damage, read-out: Percentage damage caused to weed species, post-emergence, SOLNI. The protocol:
as §1, with “8 days” for “one day”
as §3

The test system of the next series is Maize cv CLAXXON. The experiment in a line: Safening on corn, general crop injury. It is filed as in vivo. The following applies: 200 g ai/ha (with safener 200 + 200), sprayed at 3-leaf stage, 100% total damage, 0% no damage. The protocol:
(§4) Maize seeds were sown into standard soil in pots and cultivated under controlled conditions in a glasshouse (at 24/18° C. day/night; 16 hours light; 65% humidity).
(§5) When the plants were at the vegetative stage of 3 leaves they were sprayed with an aqueous spray solution containing the components of the invention alone and where appropriate the herbicide safener (N-(2-methoxybenzoyl)-4-[(methylaminocarbonyl)amino]benzenesulfonamide). All the compounds used for the spray solution were present as an EC or SC formulation respectively. In addition a non-ionic surfactant (X-77 Spreader) was added to form a 0.2% v/v solution.
(§6) The spray solution was applied with a cabinet tracksprayer with a flat fan nozzle (Teejet 11002VS) and an application volume of 200 L/ha (at 2 bar).
(§7) The test plants were then grown on in a glasshouse under controlled conditions (at 24/18° C. day/night; 16 hours light; 65% humidity) and watered twice a day. After 7 and 17 days the test was evaluated for general crop injury (100% equals total damage to plant; 0% equals no damage to plant).

A further series has as its system Maize cv GARLAND. The experiment in a line: Safening on corn, general crop injury. The following applies: 200 g ai/ha (with safener 200 + 200), sprayed at 3-leaf stage, 100% total damage, 0% no damage. It is filed as in vivo. The protocol:
as §4, §5, §6, §7

Each structure is given as a SMILES string.

On to `C=Cc1c(C(=O)O)nc(Cl)c(F)c1N` [Compound 1-12, 4-Amino-6-chloro-3-ethenyl-5-fluoro-pyridine-2-carboxylic acid], for which the pest or weed control at 1000 g/ha in [1] came to 90%; in series [2], 100%; in series [3], 90%; in series [4] it was 100%; in the series on Setaria faberi (SETFA) [5], 100%; in the series with Solanum nigrum (SOLNI) [6], 100%. For the same molecule, the pest or weed control at 1000 g/ha in [7] was 90%; in series [8], 100%; in series [9], 90%; in series [10] it was 100%; in the series with Setaria faberi (SETFA) [11], 90%; in the series with Solanum nigrum (SOLNI) [12], 90%. Moreover, the “Percentage damage caused to corn, Maize cv CLAXXON, 7 days after application” value in the series on Maize cv CLAXXON is on record as 60%. Moreover, the “Percentage damage caused to corn, Maize cv CLAXXON, 17 days after application” value in the series with Maize cv CLAXXON is 50%. The “Percentage damage caused to corn, Maize cv GARLAND, 7 days after application” value with Maize cv GARLAND is reported as 60%. Further, the “Percentage damage caused to corn, Maize cv GARLAND, 17 days after application” value with Maize cv GARLAND was determined as 50%.

In the case of `C=Cc1c(N)cc(Cl)nc1C(=O)O` [Compound 1-4, 4-amino-6-chloro-3-ethenyl-pyridine-2-carboxylic acid], the melting point was 141 to 146 °C (dec.). Moreover, the pest or weed control at 1000 g/ha in [1] amounted to 90%. The pest or weed control at 1000 g/ha in series [2] amounted to 100%. Besides, the pest or weed control at 1000 g/ha in [3] was 90%. Besides, in series [4], the pest or weed control at 1000 g/ha worked out at 100%. In the series on Setaria faberi (SETFA) [5], the pest or weed control at 1000 g/ha worked out at 100%. Further, the pest or weed control at 1000 g/ha in the series on Solanum nigrum (SOLNI) [6] was determined as 100%. Also, in series [7], the pest or weed control at 1000 g/ha was found to be 80%. Further, the pest or weed control at 1000 g/ha in series [8] was 100%. In addition, the pest or weed control at 1000 g/ha in series [9] was 80%. The pest or weed control at 1000 g/ha in series [10] was 70%. The pest or weed control at 1000 g/ha with Setaria faberi (SETFA) [11] was 100%. For the same molecule, the pest or weed control at 1000 g/ha with Solanum nigrum (SOLNI) [12] was determined as 100%. For the same molecule, in the series on Maize cv CLAXXON, the “Percentage damage caused to corn, Maize cv CLAXXON, 7 days after application” value was determined as 60% and the “Percentage damage caused to corn, Maize cv CLAXXON, 17 days after application” value worked out at 50%. For the same molecule, in the series on Maize cv GARLAND, the “Percentage damage caused to corn, Maize cv GARLAND, 7 days after application” value was 60% and the “Percentage damage caused to corn, Maize cv GARLAND, 17 days after application” value came out at 65%.

For the origin of these results see patent US20130065757A1, “CHEMICAL COMPOUNDS” (Syngenta Limited, priority 2010, published 2013).
